Calls of active or inactive are those of the source. The rule behind the calls is not given here.
How the values were obtained:
[1] = Toxicity in BALB/c mouse xenografted with human A549 cells assessed as body weight loss at 2 to 8 mg/kg, iv administered every 2 days for 13 days; format: organism-based; settings: in vivo, 312 h, dose 2-8 mg/kg, time 13 day
A549 [2] = experiment: Induction of apoptosis in human A549 cells assessed as increase in cleaved caspase-8 expression at 0.25 to 4 uM incubated for 48 hrs by western blot analysis; format: functional, cell-based; settings: dose 0.25-4 µM
A549 [3] = experiment: Induction of mitochondrial membrane potential depolarization in human A549 cells assessed as proportion of cells with depolarized mitochondria by measuring green fluorescent J-monomers at 0.5 uM incubated for 48 hrs by JC-1 staining based flow cytometry (reference value: 34.2%); format: functional
A549 [4] = experiment: Induction of apoptosis in human A549 cells assessed as increase in cleaved PARP expression incubated for 48 hrs by western blot analysis; format: functional, cell-based; settings: dose 0.25-4 µM, DDE = dose-dependent effect
A549 [5] = experiment: Induction of apoptosis in human A549 cells assessed as viable cells at 0.125 uM incubated for 48 hrs by Annexin V-FITC/propidium iodide staining based flow cytometry (reference value: 95.7%); format: functional; settings: read-out: Activity
A549 [6] = experiment: Induction of apoptosis in human A549 cells assessed as early apoptotic cells at 0.5 uM incubated for 48 hrs by Annexin V-FITC/propidium iodide staining based flow cytometry (reference value: 0.11%); format: functional
A549 [7] = experiment: Induction of apoptosis in human A549 cells assessed as necrotic cells at 0.5 uM incubated for 48 hrs by Annexin V-FITC/propidium iodide staining based flow cytometry (reference value: 3.36%); format: functional
A549 [8] = experiment: Induction of mitochondrial membrane potential depolarization in human A549 cells assessed as proportion of cells with intact mitochondria by measuring red fluorescent J-aggregates at 0.5 uM incubated for 48 hrs by JC-1 staining based flow cytometry (reference value: 63.9%); format: functional
A549 [9] = experiment: Induction of apoptosis in human A549 cells assessed as increase in Bax protein expression at 0.25 to 4 uM incubated for 48 hrs by western blot analysis; format: functional, cell-based; settings: dose 0.25-4 µM
A549 [10] = experiment: Induction of apoptosis in human A549 cells assessed as late apoptotic cells at 0.125 uM incubated for 48 hrs by Annexin V-FITC/propidium iodide staining based flow cytometry (reference value: 0.82%); format: functional
A549 [11] = experiment: Induction of apoptosis in human A549 cells assessed as necrotic cells at 0.125 uM incubated for 48 hrs by Annexin V-FITC/propidium iodide staining based flow cytometry (reference value: 3.36%); format: functional
A549 [12] = experiment: Induction of apoptosis in human A549 cells assessed as early apoptotic cells at 0.25 uM incubated for 48 hrs by Annexin V-FITC/propidium iodide staining based flow cytometry (reference value: 0.11%); format: functional
A549 [13] = experiment: Induction of mitochondrial membrane potential depolarization in human A549 cells assessed as proportion of cells with intact mitochondria by measuring red fluorescent J-aggregates at 0.25 uM incubated for 48 hrs by JC-1 staining based flow cytometry (reference value: 63.9%); format: functional
A549 [14] = experiment: Anti-tumor activity against human A549 cells xenografted in BALB/c mouse assessed as reduction in tumor weight at 4 mg/kg, iv administered every 2 days for 13 days; format: functional; settings: A549, 312 h, time 13 day
[15] = Cytotoxicity against human MRC5 cells assessed as inhibition of cell growth measured after 96 hrs by MTT assay; format: toxicity, cell-based
A549 [16] = experiment: Induction of apoptosis in human A549 cells assessed as viable cells at 0.25 uM incubated for 48 hrs by Annexin V-FITC/propidium iodide staining based flow cytometry (reference value: 95.7%); format: functional; settings: read-out: Activity
A549 [17] = experiment: Induction of apoptosis in human A549 cells assessed as decrease in Bcl-2 protein expression at 0.25 to 4 uM incubated for 48 hrs by western blot analysis; format: functional, cell-based; settings: dose 0.25-4 µM
A549 [18] = experiment: Induction of apoptosis in human A549 cells assessed as necrotic cells at 0.25 uM incubated for 48 hrs by Annexin V-FITC/propidium iodide staining based flow cytometry (reference value: 3.36%); format: functional
A549 [19] = experiment: Induction of apoptosis in human A549 cells assessed as late apoptotic cells at 0.5 uM incubated for 48 hrs by Annexin V-FITC/propidium iodide staining based flow cytometry (reference value: 0.82%); format: functional
A549 [20] = experiment: Induction of apoptosis in human A549 cells assessed as late apoptotic cells at 0.25 uM incubated for 48 hrs by Annexin V-FITC/propidium iodide staining based flow cytometry (reference value: 0.82%); format: functional
A549 [21] = experiment: Induction of mitochondrial membrane potential depolarization in human A549 cells assessed as proportion of cells with depolarized mitochondria by measuring green fluorescent J-monomers at 0.25 uM incubated for 48 hrs by JC-1 staining based flow cytometry (reference value: 34.2%); format: functional
A549 [22] = experiment: Anti-tumor activity against human A549 cells xenografted in BALB/c mouse assessed as reduction in tumor weight at 2 mg/kg, iv administered every 2 days for 13 days; format: functional; settings: A549, 312 h, time 13 day
A549 [23] = experiment: Induction of apoptosis in human A549 cells assessed as nuclear fragmentation and chromatin condensation incubated for 48 hrs by Hoechst 33342 staining based fluorescence microscopic analysis; format: functional, cell-based; settings: dose 0.25-0.5 µM, DDE = dose-dependent effect
A549 [24] = experiment: Induction of mitochondrial membrane potential depolarization in human A549 cells assessed as proportion of cells with depolarized mitochondria by measuring green fluorescent J-monomers at 0.125 uM incubated for 48 hrs by JC-1 staining based flow cytometry (reference value: 34.2%); format: functional
A549 [25] = experiment: Induction of mitochondrial membrane potential depolarization in human A549 cells assessed as proportion of cells with intact mitochondria by measuring red fluorescent J-aggregates at 0.125 uM incubated for 48 hrs by JC-1 staining based flow cytometry (reference value: 63.9%); format: functional
A549 [26] = experiment: Anti-tumor activity against human A549 cells xenografted in BALB/c mouse assessed as reduction in tumor volume at 2 to 8 mg/kg, iv administered every 2 days for 13 days; format: functional, organism-based; settings: dose 2-8 mg/kg, time 13.0 day
A549 [27] = experiment: cells; settings: Homo sapiens, A549, 96 h
Description: Cytotoxicity against human A549 cells assessed as inhibition of cell growth measured after 96 hrs by MTT assay

A549 [28] = experiment: Cytotoxicity against human A549 cells assessed as inhibition of cell proliferation at 0.1 uM pretreated for 2 hrs with autophagy inhibitor, 3-methyladenine followed by incubation with compound and measured after 48 hrs by MTT assay; format: functional, cell-based
A549 [29] = experiment: Induction of apoptosis in human A549 cells assessed as increase in cleaved caspase-9 expression incubated for 48 hrs by western blot analysis; format: functional, cell-based; settings: dose 0.25-4 µM, DDE = dose-dependent effect
[30] = Stability of the compound in DMEM culture medium at 100 ug/ml measured after 72 hrs by HPLC analysis; format: physicochemical; settings: at 100 µg/mL
A549 [31] = experiment: Cytotoxicity against human A549 cells assessed as inhibition of cell proliferation at 0.125 to 2 uM by MTT assay; format: functional, cell-based; settings: dose 0.125-2 µM, time 24-72 hrs, TDE = time-dependent effect
A549 [32] = experiment: Cytotoxicity against human A549 cells assessed as inhibition of cell proliferation at 0.1 uM pretreated for 2 hrs with necroptosis inhibitor, necrostatin-1 followed by incubation with compound and measured after 48 hrs by MTT assay; format: functional, cell-based
A549 [33] = experiment: Induction of apoptosis in human A549 cells assessed as increase in cleaved caspase-3 expression incubated for 48 hrs by western blot analysis; format: functional, cell-based; settings: dose 0.25-4 µM, DDE = dose-dependent effect
A549 [34] = experiment: Induction of apoptosis in human A549 cells assessed as viable cells at 0.5 uM incubated for 48 hrs by Annexin V-FITC/propidium iodide staining based flow cytometry (reference value: 95.7%); format: functional; settings: read-out: Activity
A549 [35] = experiment: Anti-tumor activity against human A549 cells xenografted in iv dosed BALB/c mouse assessed as reduction in tumor growth administered every 2 days for 13 days; format: functional, organism-based; settings: dose 2-8 mg/kg, time 13.0 day, DDE = dose-dependent effect
A549 [36] = experiment: Anti-tumor activity against human A549 cells xenografted in BALB/c mouse assessed as reduction in tumor weight at 8 mg/kg, iv administered every 2 days for 13 days; format: functional; settings: A549, 312 h, time 13 day
A549 [37] = experiment: Potency index, ratio of celastrol IC50 to test compound IC50 for cytotoxicity against human A549 cells by MTT assay; format: functional
A549 [38] = experiment: Induction of apoptosis in human A549 cells assessed as early apoptotic cells at 0.125 uM incubated for 48 hrs by Annexin V-FITC/propidium iodide staining based flow cytometry (reference value: 0.11%); format: functional
[39] = Selectivity index, ratio of IC50 for human MRC5 cells to IC50 for human A549 cells; format: toxicity; settings: MRC5 cells and A549 cells, read-out: Ratio IC50
A549 [40] = experiment: Cytotoxicity against human A549 cells assessed as inhibition of cell proliferation measured after 24 to 72 hrs by MTT assay; format: functional, cell-based; settings: dose 0.125-2 µM, time 24-72 hrs, DDE = dose-dependent effect

CC1=C(O)C(=O)C=C2C1=CC=C1[C@@]2(C)CC[C@@]2(C)[C@@H]3C[C@](C)(C(=O)N4CCN(C(=O)CN5C(=O)S/C(=C\C6CC6)C5=O)CC4)CC[C@]3(C)CC[C@]12C
Activity [1]: Non-Toxic
Activity (A549 [2]): Active
Activity (A549 [3]): 46.4%
Activity (A549 [4]): Dde
viability at 0.125 µM (A549 [5]): 85.8%
Activity (A549 [6]): 3.73%
Activity (A549 [7]): 6.96%
Activity (A549 [8]): 51.7%
Activity (A549 [9]): Active
Activity (A549 [10]): 7.71%
Activity (A549 [11]): 4.59%
Activity (A549 [12]): 2.68%
Activity (A549 [13]): 56%
inhibition in vivo at 4 mg/kg (A549 [14]): 64.4%
IC50 at 96 h [15]: 3020 nM
viability at 0.25 µM (A549 [16]): 71.8%
Activity (A549 [17]): Active
Activity (A549 [18]): 5.86%
Activity (A549 [19]): 29.5%
Activity (A549 [20]): 19.6%
Activity (A549 [21]): 42.3%
inhibition in vivo at 2 mg/kg (A549 [22]): 48.8%
Activity (A549 [23]): Dde
Activity (A549 [24]): 38.2%
Activity (A549 [25]): 60.2%
Activity (A549 [26]): Active
IC50 (A549 [27]): 80 nM
Activity (A549 [28]): Active
Activity (A549 [29]): Dde
Stability [30]: Stable
Activity (A549 [31]): Tde
Activity (A549 [32]): Active
Activity (A549 [33]): Dde
viability at 0.5 µM (A549 [34]): 59.8%
Activity (A549 [35]): Dde
inhibition in vivo at 8 mg/kg (A549 [36]): 69.5%
Ratio IC50 (A549 [37]): 13.8
Activity (A549 [38]): 1.9%
selectivity ratio [39]: 37.8
Activity (A549 [40]): Dde

— ChEMBL document CHEMBL5120779, “Thiazolidinedione-Based Structure Modification of Celastrol Provides Thiazolidinedione-Conjugated Derivatives as Potent Agents against Non-Small-Cell Lung Cancer Cells through a Mitochondria-Mediated Apoptotic Pathway” (J Nat Prod, 2022)
